# Results: patent US10875875B2, “Propionic acid derivatives and methods of use thereof” (Aviara Pharmaceuticals, Inc., priority 2017, dated 2020)
# Target: α4β1 (Homo sapiens, UniProt P05556+P13612)
# Experiment: α4β1 integrin inhibition, IC50
# Assay type: binding
# Settings: read-out: α4β1 IC50
# Sequence of α4β1 (P13612 34-1032): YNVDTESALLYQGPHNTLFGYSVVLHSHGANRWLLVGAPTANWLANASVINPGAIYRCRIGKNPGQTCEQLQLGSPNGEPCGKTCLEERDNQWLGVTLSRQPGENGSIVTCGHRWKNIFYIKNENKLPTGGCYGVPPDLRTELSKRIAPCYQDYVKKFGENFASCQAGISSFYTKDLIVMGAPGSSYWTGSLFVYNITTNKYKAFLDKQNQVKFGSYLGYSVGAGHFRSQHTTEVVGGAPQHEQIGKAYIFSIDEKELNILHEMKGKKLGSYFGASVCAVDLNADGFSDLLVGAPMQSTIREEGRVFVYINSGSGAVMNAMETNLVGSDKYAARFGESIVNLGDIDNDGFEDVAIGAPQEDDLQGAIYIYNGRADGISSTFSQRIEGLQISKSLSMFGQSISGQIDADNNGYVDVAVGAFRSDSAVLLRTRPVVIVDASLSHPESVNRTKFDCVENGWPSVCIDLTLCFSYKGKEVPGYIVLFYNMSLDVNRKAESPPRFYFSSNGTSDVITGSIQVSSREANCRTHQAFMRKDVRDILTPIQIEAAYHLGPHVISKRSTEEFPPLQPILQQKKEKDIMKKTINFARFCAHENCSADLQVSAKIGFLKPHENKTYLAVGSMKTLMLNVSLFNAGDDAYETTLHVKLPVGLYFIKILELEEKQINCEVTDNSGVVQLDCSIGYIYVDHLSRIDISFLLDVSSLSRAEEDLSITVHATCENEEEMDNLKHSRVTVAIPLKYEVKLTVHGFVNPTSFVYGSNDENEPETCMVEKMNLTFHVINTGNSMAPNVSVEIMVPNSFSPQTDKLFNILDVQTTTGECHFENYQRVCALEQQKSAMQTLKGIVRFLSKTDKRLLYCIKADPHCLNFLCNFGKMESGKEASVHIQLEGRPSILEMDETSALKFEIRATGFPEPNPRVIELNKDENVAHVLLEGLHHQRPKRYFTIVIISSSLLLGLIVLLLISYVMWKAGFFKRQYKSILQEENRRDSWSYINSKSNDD
# Sequence of α4β1 (P05556 21-798): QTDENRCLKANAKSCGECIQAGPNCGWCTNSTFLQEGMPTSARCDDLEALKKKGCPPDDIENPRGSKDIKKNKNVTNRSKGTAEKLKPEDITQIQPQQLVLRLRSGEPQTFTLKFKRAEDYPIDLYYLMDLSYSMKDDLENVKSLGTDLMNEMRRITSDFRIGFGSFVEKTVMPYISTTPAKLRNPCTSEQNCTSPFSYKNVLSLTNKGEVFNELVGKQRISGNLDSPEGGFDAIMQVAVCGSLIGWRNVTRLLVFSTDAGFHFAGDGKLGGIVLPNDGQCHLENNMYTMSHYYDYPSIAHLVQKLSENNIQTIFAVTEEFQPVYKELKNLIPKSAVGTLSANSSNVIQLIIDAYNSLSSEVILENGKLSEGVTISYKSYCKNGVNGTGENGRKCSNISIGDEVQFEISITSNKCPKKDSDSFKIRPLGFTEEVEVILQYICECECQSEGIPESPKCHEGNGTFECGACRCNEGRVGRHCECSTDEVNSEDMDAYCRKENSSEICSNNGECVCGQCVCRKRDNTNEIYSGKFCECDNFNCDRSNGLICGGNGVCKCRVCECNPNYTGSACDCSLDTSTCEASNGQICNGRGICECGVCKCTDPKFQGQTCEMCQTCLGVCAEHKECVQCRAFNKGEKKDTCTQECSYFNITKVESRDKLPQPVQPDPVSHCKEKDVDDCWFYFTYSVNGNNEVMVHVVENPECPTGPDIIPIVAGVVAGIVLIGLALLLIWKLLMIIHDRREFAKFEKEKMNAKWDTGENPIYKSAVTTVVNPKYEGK
row,SMILES,IC50 [nM]
1,"Cc1ccccc1-c1cccc([C@H](CC(=O)O)NC(=O)Nc2c(O)c(C)cn(C)c2=O)c1 [1-440, sodium (S)-3-(3-(1,5-dimethyl-4-oxido-2-oxo-1,2-dihydropyridin-3-yl)ureido)-3-(2′-methylbiphenyl-3-yl)propanoate]",< 200
2,"Cn1ccc(O)c(NC(=O)N[C@@H](CC(=O)O)c2ccc(OC(F)(F)F)c(-c3ccccc3)c2)c1=O [1-625, sodium (S)-3-(3-(1-methyl-4-oxido-2-oxo-1,2-dihydropyridin-3-yl)ureido)-3-(6-(trifluoromethoxy)biphenyl-3-yl)propanoate]",< 200
3,"COc1ccc(OC)c(-c2cccc([C@H](CC(=O)O)NC(=O)Nc3c(O)c(C)cn(C)c3=O)c2)c1 [1-477, sodium (S)-3-(2′,5′-dimethoxybiphenyl-3-yl)-3-(3-(1,5-dimethyl-4-oxido-2-oxo-1,2-dihydropyridin-3-yl)ureido)propanoate]",< 200
4,"Cc1cn(C)c(=O)c(NC(=O)NC(CC(=O)O)c2cccc(-c3ccc(Cl)c(Cl)c3)c2)c1O (stereo not drawn) [1-481, sodium 3-(3′,4′-dichlorobiphenyl-3-yl)-3-(3-(1,5-dimethyl-4-oxido-2-oxo-1,2-dihydropyridin-3-yl)ureido)propanoate]",< 200
5,"Cc1cccc(C)c1-c1ccc([C@H](CC(=O)O)NC(=O)Nc2c(O)ccn(C)c2=O)cc1 [1-636, sodium (S)-3-(2′,6′-dimethylbiphenyl-4-yl)-3-(3-(1-methyl-4-oxido-2-oxo-1,2-dihydropyridin-3-yl)ureido)propanoate]",< 200
6,"Cc1cccc(-c2cccc([C@H](CC(=O)O)NC(=O)Nc3c(O)c(C)cn(C)c3=O)c2)c1 [1-451, sodium (S)-3-(3-(1,5-dimethyl-4-oxido-2-oxo-1,2-dihydropyridin-3-yl)ureido)-3-(3′-methylbiphenyl-3-yl)propanoate]",< 200
7,"COc1cccc(-c2csc([C@H](CC(=O)O)NC(=O)Nc3c(O)ccn(C)c3=O)c2)c1 [1-528, sodium (S)-3-(4-(3-methoxyphenyl)thiophen-2-yl)-3-(3-(1-methyl-4-oxido-2-oxo-1,2-dihydropyridin-3-yl)ureido)propanoate]",< 20
8,"Cn1ccc(O)c(NC(=O)N[C@@H](CC(=O)O)c2cccc(-c3ccccc3OC(F)(F)F)c2)c1=O [1-512, sodium (S)-3-(3-(1-methyl-4-oxido-2-oxo-1,2-dihydropyridin-3-yl)ureido)-3-(2′-(trifluoromethoxy)biphenyl-3-yl)propanoate]",< 20
9,"Cn1c(=O)c(NC(=O)N[C@@H](CC(=O)O)c2cccc(-c3ccc(F)cc3F)c2)c(O)c2cccnc21 [1-526, sodium (S)-3-(2′,4′-difluorobiphenyl-3-yl)-3-(3-(1-methyl-4-oxido-2-oxo-1,2-dihydro-1,8-naphthyridin-3-yl)ureido)propanoate]",< 200
10,"Cn1ccc(O)c(NC(=O)N[C@@H](CC(=O)O)c2cc(-c3ccc(F)cc3F)cs2)c1=O [1-523, sodium (S)-3-(4-(2,4-difluorophenyl)thiophen-2-yl)-3-(3-(1-methyl-4-oxido-2-oxo-1,2-dihydropyridin-3-yl)ureido)propanoate]",< 20
11,"COc1cc([C@H](CC(=O)O)NC(=O)Nc2c(O)c(C)cn(C)c2=O)cc(-c2ccccc2)c1OC [1-475, sodium (S)-3-(5,6-dimethoxybiphenyl-3-yl)-3-(3-(1,5-dimethyl-4-oxido-2-oxo-1,2-dihydropyridin-3-yl)ureido)propanoate]",< 200
12,"CCn1ccc(O)c(NC(=O)N[C@@H](CC(=O)O)c2cccc(-c3ccc(F)cc3F)c2)c1=O [1-531, sodium (S)-3-(2′,4′-difluorobiphenyl-3-yl)-3-(3-(1-ethyl-4-oxido-2-oxo-1,2-dihydropyridin-3-yl)ureido)propanoate]",< 20
13,"CCc1ccccc1-c1cccc([C@H](CC(=O)O)NC(=O)Nc2c(O)c(C)cn(C)c2=O)c1 [1-492, sodium (S)-3-(3-(1,5-dimethyl-4-oxido-2-oxo-1,2-dihydropyridin-3-yl)ureido)-3-(2′-ethylbiphenyl-3-yl)propanoate]",< 20
14,"Cc1cn(C)c(=O)c(NC(=O)N[C@@H](CC(=O)O)c2cccc(-c3cccc(F)c3F)c2)c1O [1-496, sodium (S)-3-(2′,3′-difluorobiphenyl-3-yl)-3-(3-(1,5-dimethyl-4-oxido-2-oxo-1,2-dihydropyridin-3-yl)ureido)propanoate]",< 200
15,"Cc1cn(C)c(=O)c(NC(=O)N[C@@H](CC(=O)O)c2cccc(-c3c(F)cccc3F)c2)c1O [1-464, sodium (S)-3-(2′,6′-difluorobiphenyl-3-yl)-3-(3-(1,5-dimethyl-4-oxido-2-oxo-1,2-di hydropyridin-3-yl)ureido)propanoate]",< 20
16,"Cc1cc(-c2cccc(OC(F)(F)F)c2)cc([C@H](CC(=O)O)NC(=O)Nc2c(O)cc(C)n(C)c2=O)c1 [1-631, sodium (S)-3-(3-(1,6-dimethyl-4-oxido-2-oxo-1,2-dihydropyridin-3-yl)ureido)-3-(5-methyl-3′-(trifluoromethoxy)biphenyl-3-yl)propanoate]",< 20
17,"Cc1cn(C)c(=O)c(NC(=O)N[C@@H](CC(=O)O)c2cccc(-c3ccccc3F)c2)c1O [1-441, sodium (S)-3-(3-(1,5-dimethyl-4-oxido-2-oxo-1,2-dihydropyridin-3-yl)ureido)-3-(2′-fluorobiphenyl-3-yl)propanoate]",< 20
18,"Cc1cscc1-c1ccc([C@H](CC(=O)O)NC(=O)Nc2c(O)ccn(C)c2=O)s1 [1-584, sodium (S)-3-(4′-methyl-2,3′-bithiophen-5-yl)-3-(3-(1-methyl-4-oxido-2-oxo-1,2-di hydropyridin-3-yl)ureido)propanoate]",< 20
19,"Cn1ccc(O)c(NC(=O)N[C@@H](CC(=O)O)c2cccc(-c3cccc(OC(F)(F)F)c3)c2)c1=O [1-514, sodium (S)-3-(3-(1-methyl-4-oxido-2-oxo-1,2-dihydropyridin-3-yl)ureido)-3-(3′-(trifluoromethoxy)biphenyl-3-yl)propanoate]",< 20

# Further lines, results first:
row,IC50 [nM],SMILES
1,< 20,"COc1cc(-c2cccc(OC(F)(F)F)c2)cc([C@H](CC(=O)O)NC(=O)Nc2c(O)ccn(C)c2=O)c1 [1-565, sodium (S)-3-(5-methoxy-3′-(trifluoromethoxy)biphenyl-3-yl)-3-(3-(1-methyl-4-oxido-2-oxo-1,2-dihydropyridin-3-yl)ureido)propanoate]"
2,< 20,"Cc1ccccc1-c1ccc([C@H](CC(=O)O)NC(=O)Nc2c(O)ccn(C)c2=O)cc1 [1-616, sodium (S)-3-(3-(1-methyl-4-oxido-2-oxo-1,2-dihydropyridin-3-yl)ureido)-3-(2′-methylbiphenyl-4-yl)propanoate]"
3,< 20,"COc1cccc(-c2cc(F)cc([C@H](CC(=O)O)NC(=O)Nc3c(O)cc(C)n(C)c3=O)c2)c1 [1-605, sodium (S)-3-(5-fluoro-3′-methoxybiphenyl-3-yl)-3-(3-(4-hydroxy-1,6-dimethyl-2-oxo-1,2-dihydropyridin-3-yl)ureido)propanoate]"
4,< 20,"Cc1cn(C)c(=O)c(NC(=O)N[C@@H](CC(=O)O)c2cccc(-c3ccc(F)cc3)c2)c1O [1-466, sodium (S)-3-(3-(1,5-dimethyl-4-oxido-2-oxo-1,2-dihydropyridin-3-yl)ureido)-3-(4′-fluorobiphenyl-3-yl)propanoate]"
5,< 20,"Cn1ccc(O)c(NC(=O)N[C@@H](CC(=O)O)c2cccc(-n3ccnc3)c2)c1=O [1-539, sodium (S)-3-(3-(1H-imidazol-1-yl)phenyl)-3-(3-(1-methyl-4-oxido-2-oxo-1,2-dihydropyridin-3-yl)ureido)propanoate]"
6,< 20,"Cc1cccc(C)c1-c1ccc([C@H](CC(=O)O)NC(=O)Nc2c(O)ccn(C)c2=O)s1 [1-587, sodium (S)-3-(5-(2,6-dimethylphenyl)thiophen-2-yl)-3-(3-(1-methyl-4-oxido-2-oxo-1,2-dihydropyridin-3-yl)ureido)propanoate]"
7,< 20,"Cn1ccc(O)c(NC(=O)N[C@@H](CC(=O)O)c2cc(F)cc(-c3ccc(F)cc3F)c2)c1=O [1-633, sodium (S)-3-(3-(1-methyl-4-oxido-2-oxo-1,2-dihydropyridin-3-yl)ureido)-3-(2′,4′,5-trifluorobiphenyl-3-yl)propanoate]"
8,< 20,"Cn1ccc(O)c(NC(=O)N[C@@H](CC(=O)O)c2cccc(-c3ccc(OC(F)(F)F)cc3)c2)c1=O [1-510, sodium (S)-3-(3-(1-methyl-4-oxido-2-oxo-1,2-dihydropyridin-3-yl)ureido)-3-(4′-(trifluoromethoxy)biphenyl-3-yl)propanoate]"
9,< 20,"Cc1ccccc1-c1cc([C@H](CC(=O)O)NC(=O)Nc2c(O)ccn(C)c2=O)ccc1OC(F)(F)F [1-624, sodium (S)-3-(3-(1-methyl-4-oxido-2-oxo-1,2-dihydropyridin-3-yl)ureido)-3-(2′-methyl-6-(trifluoromethoxy)biphenyl-3-yl)propanoate]"
10,< 20,"Cn1ccc(O)c(NC(=O)N[C@@H](CC(=O)O)c2cccc(-c3ccccc3)c2)c1=O [1-505, sodium (S)-3-(biphenyl-3-yl)-3-(3-(1-methyl-4-oxido-2-oxo-1,2-dihydropyridin-3-yl)ureido)propanoate]"
11,< 20,"Cc1cscc1-c1ccc([C@H](CC(=O)O)NC(=O)Nc2c(O)cc(C)n(C)c2=O)s1 [1-585, sodium (S)-3-(3-(1,6-dimethyl-4-oxido-2-oxo-1,2-dihydropyridin-3-yl)ureido)-3-(4′-methyl-2,3′-bithiophen-5-yl)propanoate]"
12,< 20,"COc1cccc(-c2cc(OC)cc([C@H](CC(=O)O)NC(=O)Nc3c(O)ccn(C)c3=O)c2)c1 [1-564, sodium (S)-3-(3′,5-dimethoxybiphenyl-3-yl)-3-(3-(1-methyl-4-oxido-2-oxo-1,2-dihydropyridin-3-yl)ureido)propanoate]"
13,< 20,"Cn1ccc(O)c(NC(=O)N[C@@H](CC(=O)O)c2ccc(-c3cc(F)ccc3F)s2)c1=O [1-614, sodium (S)-3-(5-(2,5-difluorophenyl)thiophen-2-yl)-3-(3-(1-methyl-4-oxido-2-oxo-1,2-dihydropyridin-3-yl)ureido)propanoate]"
14,< 20,"COc1cccc(-c2cc([C@H](CC(=O)O)NC(=O)Nc3c(O)ccn(C)c3=O)ccc2F)c1 [1-547, sodium (S)-3-(6-fluoro-3′-methoxybiphenyl-3-yl)-3-(3-(1-methyl-4-oxido-2-oxo-1,2-dihydropyridin-3-yl)ureido)propanoate]"
